Among the data in ChEMBL document CHEMBL3727369, “2-cyanophenyl fused heterocyclic compounds, and compositions and uses thereof” (2013) are IC50 values, retold here.

As usually defined, the IC50 is the midpoint of a concentration-inhibition curve.

One test concerns the target P2X3 receptor. Nature of the test: Antagonist activity against rat or human P2X3 receptor expressed in HEK293/1321N1 cells assessed as inhibition of alpha,beta-meATP/ATP-induced calcium influx by Fluo-4 dye based FLIPR assay. The test is classed as functional, cell-based.
As to `Cc1ccc(N2CCc3ncnc(NCc4ccc(Cl)cn4)c3C2)c(C#N)c1`, the IC50 was determined as 0.029 µM.

As for `COc1ccc(CNc2ncnc3c2CN(c2ccc(Cl)cc2C#N)CC3)cn1`, the IC50 came out at 0.059 µM.

Take `N#Cc1cc(Br)ccc1N1CCc2ncnc(NCc3ccc(C(F)(F)F)nc3)c2C1`: the IC50 worked out at 0.08 µM.

As for `N#Cc1cc(Cl)ccc1N1CCc2ncnc(NCc3ccc(C(F)(F)F)nc3)c2C1`, the IC50 stood at 0.037 µM.

In the case of `Cc1ccc(N2CCc3ncnc(NCc4ccc5nccnc5c4)c3C2)c(C#N)c1`, the IC50 is 0.034 µM.

`N#Cc1ccccc1N1CCc2ncnc(NCc3ccc(C(F)(F)F)nc3)c2C1`: the IC50 was 0.063 µM.

For the molecule `COc1ccc([C@H](CC(=O)OC(C)(C)C)Nc2ncnc3c2CN(c2ccc(Cl)cc2C#N)CC3)cn1`, the IC50 is above 10 µM.

In the case of `Cc1ccc(N2CCc3ncnc(NCc4ccc5cccnc5c4)c3C2)c(C#N)c1`, the IC50 was determined as 0.02 µM.

For `N#Cc1cc(Cl)ccc1N1CCc2ncnc(N[C@H](CO)c3ccc(C(F)(F)F)nc3)c2C1`, the IC50 is 0.054 µM.

For `Cc1ccc(N2CCc3ncnc(NCc4ccn5ccnc5c4)c3C2)c(C#N)c1`, the IC50 is 0.018 µM.

As to `Cc1ccc(N2CCc3ncnc(NCc4ccc(C)c(F)c4)c3C2)c(C#N)c1`, the IC50 stood at 0.089 µM.

On to `COc1ccc([C@@H](CC(=O)O)Nc2ncnc3c2CN(c2ccc(Cl)cc2C#N)CC3)cn1`, for which the IC50 stood at 1.38 µM.

For `N#Cc1cc(Cl)ccc1N1CCc2ncnc(N[C@H](CO)c3ccc(C(F)F)nc3)c2C1`, the IC50 turned out to be 0.016 µM.

`COc1ccc([C@@H](CO)Nc2ncnc3c2CN(c2ccc(Cl)cc2C#N)CC3)cn1`: the IC50 is 0.023 µM.

For `Cc1ccc(N2CCc3ncnc(NCc4ccc(Cl)nc4)c3C2)c(C#N)c1`, the IC50 was 0.011 µM.

Consider `Cc1ccc(N2CCc3ncnc(NC(CCO)c4ccc(C(F)(F)F)nc4)c3C2)c(C#N)c1` (configuration not stated), for which the IC50 was found to be 0.055 µM.

As for `COc1ccc(CNc2ncnc3c2CN(c2ccc(Br)cc2C#N)CC3)cn1`, the 50% inhibitory concentration (IC50) is 0.078 µM.

Turning to `Cc1ccc(N2CCc3ncnc(NCc4ccc(C)c(C#N)c4)c3C2)c(C#N)c1`, the half-maximal inhibitory concentration (IC50) came to 0.063 µM.

In the case of `Cc1ccc(N2CCc3ncnc(NCc4ccc(Cl)c(-n5cnnc5)c4)c3C2)c(C#N)c1`, the IC50 is 0.031 µM.

Regarding `N#Cc1cc(Cl)ccc1N1CCc2ncnc(N[C@H](CCO)c3ccc(C(F)F)nc3)c2C1`, the IC50 worked out at 0.032 µM.

Consider `Cc1ccc(N2CCc3ncnc(NCc4ccc5c(c4)OCO5)c3C2)c(C#N)c1`, for which the IC50 came out at 0.056 µM.

Take `Cc1ccc(N2CCc3ncnc(NCc4ccc(C(F)(F)F)nc4)c3C2)c(C#N)c1`: the IC50 came to 0.019 µM.

As for `N#Cc1cc(Cl)ccc1N1CCc2ncnc(NCc3ccn4ccnc4c3)c2C1`, the IC50 is 0.122 µM.

For the molecule `Cc1ccc(N2CCc3ncnc(NCc4cccc(C#N)c4)c3C2)c(C#N)c1`, the IC50 is 0.183 µM.

For `Cc1ccc(N2CCc3ncnc(NCc4ccc(C)c(S(C)(=O)=O)c4)c3C2)c(C#N)c1`, the IC50 was 0.016 µM.

For `Cc1ccc(N2CCc3ncnc(NCc4ccc5ccccc5n4)c3C2)c(C#N)c1`, the IC50 came out at 0.156 µM.

Turning to `Cc1ccc(N2CCc3ncnc(NCc4ccc5cc[nH]c5c4)c3C2)c(C#N)c1`, the 50% inhibitory concentration (IC50) was found to be 0.423 µM.

`N#Cc1cc(F)ccc1N1CCc2ncnc(NCc3ccc(C(F)(F)F)nc3)c2C1`: the IC50 stood at 0.085 µM.

With `Cc1ccc(N2CCc3ncnc(N[C@H](CCO)c4ccc(C(F)(F)F)nc4)c3C2)c(C#N)c1`, the IC50 was found to be 0.023 µM.

Take `N#Cc1cc(Cl)ccc1N1CCc2ncnc(NCc3ccc(C(F)(F)F)cn3)c2C1`: the IC50 is 0.118 µM.

As to `N#Cc1cc(Cl)ccc1N1CCc2ncnc(NCc3ccc4nccnc4c3)c2C1`, the IC50 came out at 0.125 µM.

As for `N#Cc1cc(C(F)(F)F)ccc1N1CCc2ncnc(NCc3ccc(C(F)(F)F)nc3)c2C1`, the IC50 stood at 1.84 µM.

In the case of `Cc1ccc(N2CCc3ncnc(NCc4ncc(Cl)cc4Cl)c3C2)c(C#N)c1`, the IC50 came to 0.041 µM.

Take `N#Cc1cc(Cl)ccc1N1CCc2ncnc(NCc3cccc(-n4cnnc4)c3)c2C1`: the half-inhibitory concentration (IC50) was 0.284 µM.

Consider `CN(C)c1ccc(CNc2ncnc3c2CN(c2ccc(Cl)cc2C#N)CC3)cn1`, for which the IC50 came to 0.628 µM.

As for `CSc1cc(CNc2ncnc3c2CN(c2ccc(C)cc2C#N)CC3)ccc1C`, the IC50 amounted to 0.474 µM.

Take `Cc1ccc(N2CCc3ncnc(NCc4ccc5ocnc5c4)c3C2)c(C#N)c1`: the 50% inhibitory concentration (IC50) was determined as 0.015 µM.

For the molecule `Cc1ccc(N2CCc3ncnc(N[C@H](CCO)c4ccc(C(F)F)nc4)c3C2)c(C#N)c1`, the IC50 turned out to be 0.013 µM.

Regarding `Cc1ccc(N2CCc3ncnc(NCc4ccc(C)c(N5CCOCC5)c4)c3C2)c(C#N)c1`, the IC50 worked out at 0.096 µM.

Turning to `N#Cc1cc(C2CC2)ccc1N1CCc2ncnc(NCc3ccc(C(F)(F)F)nc3)c2C1`, the IC50 is 0.87 µM.

As for `Cc1ccc(N2CCc3ncnc(N[C@@H](CCO)c4ccc(C(F)(F)F)nc4)c3C2)c(C#N)c1`, the IC50 was 0.806 µM.

For `COc1ccc([C@@H](CCO)Nc2ncnc3c2CN(c2ccc(Cl)cc2C#N)CC3)cn1`, the IC50 is 0.033 µM.

Consider `Cc1ccc(N2CCc3ncnc(NCc4ccc(C5CC5)cn4)c3C2)c(C#N)c1`, for which the IC50 worked out at 0.236 µM.

`Cc1ccc(N2CCc3ncnc(NCc4ccc(Cl)c(S(C)(=O)=O)c4)c3C2)c(C#N)c1`: the IC50 amounted to 0.037 µM.

On to `N#Cc1cc(Cl)ccc1N1CCc2ncnc(N[C@H](CCO)c3ccc(C(F)(F)F)nc3)c2C1`, for which the IC50 was 0.09 µM.

Turning to `Cc1nc(C(F)(F)F)ccc1CNc1ncnc2c1CN(c1ccc(Cl)cc1C#N)CC2`, the IC50 stood at 0.187 µM.

On to `CCc1ccc(CNc2ncnc3c2CN(c2ccc(C)cc2C#N)CC3)cn1`, for which the IC50 was found to be 0.038 µM.

In the case of `N#Cc1cc(Cl)ccc1N1CCc2ncnc(NCc3ncc(C(F)(F)F)cc3Cl)c2C1`, the IC50 was 0.091 µM.

Regarding `Cc1ccc(N2CCc3ncnc(NCc4cccc(-n5cnnc5)c4)c3C2)c(C#N)c1`, the half-inhibitory concentration (IC50) was 0.065 µM.

On to `Cc1ccc(N2CCc3ncnc(NCc4ccc(C)c(I)c4)c3C2)c(C#N)c1`, for which the IC50 came out at 0.512 µM.

`Cc1ccc(N2CCc3ncnc(NCc4ccc(C)c(-n5cncn5)c4)c3C2)c(C#N)c1`: the IC50 is 0.021 µM.

As to `Cc1ccc(CNc2ncnc3c2CN(c2ccc(Cl)cc2C#N)CC3)cc1S(C)(=O)=O`, the IC50 worked out at 0.04 µM.

As for `CC(=O)OCC[C@@H](Nc1ncnc2c1CN(c1ccc(C)cc1C#N)CC2)c1ccc(C(F)(F)F)nc1`, the IC50 came to 0.13 µM.

Take `Cc1ccc(N2CCc3ncnc(NCc4ccccn4)c3C2)c(C#N)c1`: the IC50 came out at 0.196 µM.

With `Cc1ccc(N2CCc3ncnc(N[C@H](CO)c4ccc(C(F)(F)F)nc4)c3C2)c(C#N)c1`, the 50% inhibitory concentration (IC50) came out at 0.021 µM.

Regarding `N#Cc1cc(Cl)ccc1N1CCc2ncnc(NCc3ccc(Cl)c(-n4cnnc4)c3)c2C1`, the IC50 amounted to 0.041 µM.

The next test has as its target T1, P2X2/P2X3 heterotrimeric receptor (Homo sapiens, UniProt P56373+Q9UBL9).
T1 sequence (Q9UBL9 whole entry): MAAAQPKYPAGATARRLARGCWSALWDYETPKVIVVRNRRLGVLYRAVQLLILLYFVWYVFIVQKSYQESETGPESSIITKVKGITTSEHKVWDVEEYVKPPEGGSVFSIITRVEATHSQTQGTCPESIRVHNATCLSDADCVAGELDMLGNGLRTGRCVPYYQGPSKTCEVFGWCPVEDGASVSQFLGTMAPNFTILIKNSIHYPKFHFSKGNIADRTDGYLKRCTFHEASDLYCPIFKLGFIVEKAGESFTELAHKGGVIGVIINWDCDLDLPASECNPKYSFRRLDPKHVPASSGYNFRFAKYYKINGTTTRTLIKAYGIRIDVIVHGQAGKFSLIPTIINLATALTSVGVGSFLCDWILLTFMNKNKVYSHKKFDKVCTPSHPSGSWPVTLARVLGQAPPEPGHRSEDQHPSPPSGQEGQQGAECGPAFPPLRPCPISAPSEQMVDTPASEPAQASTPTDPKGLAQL
T1 sequence (P56373 whole entry): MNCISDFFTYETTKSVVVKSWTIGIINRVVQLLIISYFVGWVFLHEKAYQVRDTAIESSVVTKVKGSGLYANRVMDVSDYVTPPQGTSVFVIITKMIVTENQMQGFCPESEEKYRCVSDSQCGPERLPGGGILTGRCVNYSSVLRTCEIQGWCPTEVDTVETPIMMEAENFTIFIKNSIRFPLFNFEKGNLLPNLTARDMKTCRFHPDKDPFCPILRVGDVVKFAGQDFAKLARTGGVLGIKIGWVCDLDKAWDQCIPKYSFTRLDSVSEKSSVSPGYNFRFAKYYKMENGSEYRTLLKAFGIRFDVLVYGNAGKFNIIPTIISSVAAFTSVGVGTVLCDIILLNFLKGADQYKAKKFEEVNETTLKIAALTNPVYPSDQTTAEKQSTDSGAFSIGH
Put plainly: Antagonist activity against human P2X2/3 receptor expressed in HEK293/1321N1 cells assessed as inhibition of alpha,beta-meATP/ATP-induced calcium influx by Fluo-4 dye based FLIPR assay. Type of test: functional, cell-based.
As to `COc1ccc([C@H](CC(=O)OC(C)(C)C)Nc2ncnc3c2CN(c2ccc(Cl)cc2C#N)CC3)cn1`, the IC50 is above 10 µM.
